# Source: ChEMBL document CHEMBL1201862, “PubChem BioAssay data set” (2004)
#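 Following 48 hours of exposure in 96-well plates, responses at five concentrations were used to interpolate endpoints linearly. GI50 = concentration required for 50% inhibition of growth.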 Activity calls are given as the source filed them. Cut-off read from the data, not from the text of the source: active = GI50 up to about 1.1 µM and inactive = higher.
# How the values were obtained:
# Assay in all cases: NCI-60 cell line screen, 48 h
# [1] = test system: NCI-H522
# [2] = test system: DU-145
# [3] = test system: OVCAR-4
# [4] = test system: SF-268
# [5] = test system: SNB-75
# [6] = test system: M14
# [7] = test system: A498
# [8] = test system: OVCAR-5
# [9] = test system: HOP-62
# [10] = test system: Malme-3M
# [11] = test system: TK-10
# [12] = test system: MOLT-4
# [13] = test system: HT-29
# [14] = test system: SR
# [15] = test system: MDA-MB-435
# [16] = test system: MDA-MB-231
# [17] = test system: SK-MEL-28
# [18] = test system: IGROV-1
# [19] = test system: 786-0
# [20] = test system: UACC-257
# [21] = test system: ACHN
# [22] = test system: NCI-H460
# [23] = test system: SN12C
# [24] = test system: SK-OV-3
# [25] = test system: HCC 2998
# [26] = test system: SF-295
# [27] = test system: K562
# [28] = test system: HL-60
# [29] = test system: UACC-62
# [30] = test system: LOX IMVI
# [31] = test system: BT-549
# [32] = test system: RXF 393
# [33] = test system: SK-MEL-2
# [34] = test system: PC-3
# [35] = test system: EKVX
# [36] = test system: NCI-H23
# [37] = test system: A549
# [38] = test system: COLO 205
# [39] = test system: KM12
# [40] = test system: U-251
# [41] = test system: MDA-N
# [42] = test system: Hs-578T
# [43] = test system: HCT-116
# [44] = test system: T47D
# [45] = test system: UO-31
# [46] = test system: NCI-H226
# [47] = test system: CCRF-CEM
# [48] = test system: CAKI-1
# [49] = test system: SNB-19
# [50] = test system: HOP-92
# [51] = test system: HCT-15
# [52] = test system: SW-620
# [53] = test system: SF-539
# [54] = test system: RPMI-8226
# [55] = test system: OVCAR-3
# [56] = test system: OVCAR-8
# [57] = test system: NCI/ADR-RES
# [58] = test system: MCF7
# [59] = test system: SK-MEL-5
smiles,measurement,setting,value
CC(C)OP(=O)(OC(C)C)C(Nc1cccc(C(F)(F)F)c1)c1ccccc1 (centres undefined),GI50,[1],20.2 µM (inactive)
same,GI50,[2],77.6 µM (inactive)
same,GI50,[3],54.8 µM (inactive)
same,GI50,[4],> 100 µM (inactive)
same,GI50,[5],> 100 µM (inactive)
same,GI50,[6],38.5 µM (inactive)
same,GI50,[7],> 100 µM (inactive)
same,GI50,[8],> 100 µM (inactive)
same,GI50,[9],69.7 µM (inactive)
same,GI50,[10],32.3 µM (inactive)
same,GI50,[11],> 100 µM (inactive)
same,GI50,[12],13.7 µM (inactive)
same,GI50,[13],21.6 µM (inactive)
same,GI50,[14],21.9 µM (inactive)
same,GI50,[15],41.6 µM (inactive)
same,GI50,[16],45.9 µM (inactive)
same,GI50,[17],93.5 µM (inactive)
same,GI50,[18],79.4 µM (inactive)
same,GI50,[19],70.3 µM (inactive)
same,GI50,[20],39.1 µM (inactive)
same,GI50,[21],35.6 µM (inactive)
same,GI50,[22],24 µM (inactive)
same,GI50,[23],37.7 µM (inactive)
same,GI50,[24],> 100 µM (inactive)
same,GI50,[25],55.6 µM (inactive)
same,GI50,[26],47.9 µM (inactive)
same,GI50,[27],23.4 µM (inactive)
same,GI50,[28],14.7 µM (inactive)
same,GI50,[29],69.8 µM (inactive)
same,GI50,[30],39.4 µM (inactive)
same,GI50,[31],17.7 µM (inactive)
same,GI50,[32],49.5 µM (inactive)
same,GI50,[33],50.7 µM (inactive)
same,GI50,[34],37.2 µM (inactive)
same,GI50,[35],33.3 µM (inactive)
same,GI50,[36],55.6 µM (inactive)
same,GI50,[37],30.5 µM (inactive)
same,GI50,[38],25.5 µM (inactive)
same,GI50,[39],40.6 µM (inactive)
same,GI50,[40],58.5 µM (inactive)
same,GI50,[41],41 µM (inactive)
same,GI50,[42],75.3 µM (inactive)
same,GI50,[43],17.1 µM (inactive)
same,GI50,[44],35.7 µM (inactive)
same,GI50,[45],17.9 µM (inactive)
same,GI50,[46],60 µM (inactive)
same,GI50,[47],31 µM (inactive)
same,GI50,[48],18.7 µM (inactive)
same,GI50,[49],71.6 µM (inactive)
same,GI50,[50],17.1 µM (inactive)
same,GI50,[51],55.5 µM
same,GI50,[52],> 10 µM (inactive)
same,GI50,[53],> 100 µM (inactive)
same,GI50,[54],12.7 µM (inactive)
same,GI50,[55],35.6 µM (inactive)
same,GI50,[56],59.4 µM (inactive)
same,GI50,[57],32.7 µM (inactive)
same,GI50,[58],46.9 µM (inactive)
same,GI50,[59],22.4 µM (inactive)
